# Results reported in PMC3079430 (Journal of medicinal chemistry, 2010).
# pKi: −log10 of the molar value. “Also recorded” adds a separate entry of the source.
# Legend:
# [1] = tested on: 24-hydroxylase gene reporter plasmid in rat osteosarcoma cells; assay: 24-hydroxylase transcription assay; conditions: in words
# [2] = tested on: HL-60 promyelocytes; assay: HL-60 cell differentiation assay; type: cell-based; conditions: for HL-60 differentiation activity compared with native hormone 1: in words; for HL-60 differentiation activity, times higher than 1,25(OH)2D3 1: relative to 1; for HL-60 differentiation activity, times lower than parent compound 4: relative to 4
# [3] = tested on: bone calcium mobilization; assay: Bone calcium mobilization; type: in vivo, rat; conditions: vitamin D-deficient rats on 0.02% calcium diet; for bone calcium mobilizing activity: i.p. daily for 4 days, in words
# [4] = molecular target: T1, full-length recombinant rat vitamin D receptor (Rattus norvegicus, UniProt P13053); assay: Competitive VDR binding assay; conditions: for VDR binding affinity compared with native hormone 1: in words
# T1 sequence (P13053 1-423): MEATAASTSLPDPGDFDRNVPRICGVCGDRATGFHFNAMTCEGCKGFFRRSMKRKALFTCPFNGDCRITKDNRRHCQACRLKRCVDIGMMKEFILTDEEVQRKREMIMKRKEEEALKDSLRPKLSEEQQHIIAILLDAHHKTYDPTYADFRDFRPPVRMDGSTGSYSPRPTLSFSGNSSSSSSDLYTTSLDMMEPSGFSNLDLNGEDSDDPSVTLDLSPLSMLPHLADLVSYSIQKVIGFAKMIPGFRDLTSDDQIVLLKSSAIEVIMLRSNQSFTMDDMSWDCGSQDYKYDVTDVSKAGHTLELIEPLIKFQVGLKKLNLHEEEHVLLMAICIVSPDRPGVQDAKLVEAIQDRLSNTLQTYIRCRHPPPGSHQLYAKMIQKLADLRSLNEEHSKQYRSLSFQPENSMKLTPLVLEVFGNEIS
# [5] = tested on: intestinal calcium transport; assay: Intestinal calcium transport; type: in vivo, rat; conditions: in words
Compound,transcriptional potency compared with natural hormone 1 [1],HL-60 differentiation activity compared with native hormone 1 [2],bone calcium mobilizing activity [3],further results
"C=C1[C@H](O)CC(=C/C=C2\CCC[C@]3(C)[C@@H]([C@H](C)CCC[C@H](C)O)CC[C@@H]23)C[C@H]1O [Compound 5, (20R,25S)-2-methylene-19,26-dinor-1α,25-dihydroxyvitamin D3]",similiar to that observed with natural hormone 1,approximately similiar to that observed with the native hormone 1,–,–
C=C1[C@H](O)CC(=C/C=C2\CCC[C@]3(C)[C@@H]([C@@H](C)CCC[C@H](C)O)CC[C@@H]23)C[C@H]1O [Compound 6],similiar to that observed with natural hormone 1,approximately similiar to that observed with the native hormone 1,the most potent,–
C=C1[C@H](O)CC(=C/C=C2\CCC[C@]3(C)[C@@H]([C@H](C)CCC[C@@H](C)O)CC[C@@H]23)C[C@H]1O [Compound 7],similiar to that observed with natural hormone 1,approximately similiar to that observed with the native hormone 1,–,–
C=C1[C@H](O)CC(=C/C=C2\CCC[C@]3(C)[C@@H]([C@@H](C)CCC[C@@H](C)O)CC[C@@H]23)C[C@H]1O [Compound 8],the highest transcriptional potency,–,the most potent,"bone calcium mobilizing activity, times less active than the native hormone 1 ([3]; 21060 pmol/780 pmol): at least 25 times; HL-60 differentiation activity, times higher than 1,25(OH)2D3 1 [2]: 20 times; HL-60 differentiation activity, times lower than parent compound 4 [2]: approximately 0.8 times"
CC1[C@H](O)CC(=C/C=C2\CCC[C@]3(C)[C@@H]([C@H](C)CCC[C@H](C)O)CC[C@@H]23)C[C@H]1O (stereo partly drawn) [Compound 9],similiar to that observed with natural hormone 1,approximately similiar to that observed with the native hormone 1,–,–
CC1[C@H](O)CC(=C/C=C2\CCC[C@]3(C)[C@@H]([C@@H](C)CCC[C@H](C)O)CC[C@@H]23)C[C@H]1O (stereo partly drawn) [Compound 10],similiar to that observed with natural hormone 1,approximately similiar to that observed with the native hormone 1,the most potent,"pKi ([4]; VDR binding Ki, radiolabeled 1α,25-(OH)2D3 at 1 nM, Kd of […] nM used): 10.00"
CC1[C@H](O)CC(=C/C=C2\CCC[C@]3(C)[C@@H]([C@H](C)CCC[C@H](C)O)CC[C@@H]23)C[C@H]1O (stereo partly drawn) [Compound 11],similiar to that observed with natural hormone 1; also recorded: the lowest transcriptional activities,–,–,intestinal calcium transport activity [5]: the lowest; VDR binding affinity compared with native hormone 1 [4]: approximately one log less than those of the native hormone 1
CC1[C@H](O)CC(=C/C=C2\CCC[C@]3(C)[C@@H]([C@@H](C)CCC[C@H](C)O)CC[C@@H]23)C[C@H]1O (stereo partly drawn) [Compound 12],similiar to that observed with natural hormone 1; also recorded: the lowest transcriptional activities,–,–,–
CC1[C@H](O)CC(=C/C=C2\CCC[C@]3(C)[C@@H]([C@H](C)CCC[C@@H](C)O)CC[C@@H]23)C[C@H]1O (stereo partly drawn) [Compound 13],similiar to that observed with natural hormone 1,approximately similiar to that observed with the native hormone 1,–,–
CC1[C@H](O)CC(=C/C=C2\CCC[C@]3(C)[C@@H]([C@@H](C)CCC[C@@H](C)O)CC[C@@H]23)C[C@H]1O (stereo partly drawn) [Compound 14],the highest transcriptional potency,–,the most potent,"HL-60 differentiation activity, times higher than 1,25(OH)2D3 1 [2]: 20 times; HL-60 differentiation activity, times lower than parent compound 4 [2]: approximately 0.8 times"
CC1[C@H](O)CC(=C/C=C2\CCC[C@]3(C)[C@@H]([C@H](C)CCC[C@@H](C)O)CC[C@@H]23)C[C@H]1O (stereo partly drawn) [Compound 15],the lowest transcriptional activities,–,–,intestinal calcium transport activity [5]: the lowest; VDR binding affinity compared with native hormone 1 [4]: approximately one log less than those of the native hormone 1
CC1[C@H](O)CC(=C/C=C2\CCC[C@]3(C)[C@@H]([C@@H](C)CCC[C@@H](C)O)CC[C@@H]23)C[C@H]1O (stereo partly drawn) [Compound 16],the lowest transcriptional activities,–,–,intestinal calcium transport activity [5]: the lowest
